Test results reported in patent US10829778B2, “Plants having increased tolerance to herbicides” (BASF SE, priority 2013, dated 2020).

How the values were obtained:
Type in all cases: biochemical
[1] = molecular target: T1, Arabidopsis HPPD (SEQ ID: 53) F381I (Arabidopsis thaliana, UniProt P93836, F381I); assay: HPPD activity assay, mutant enzyme; conditions: Table 15, normalized to Arabidopsis wild-type
T1 construct: PCR-based site directed mutagenesis of pEXP5-NT/TOPO®-AtHPPD; His6 (N); made in house; host or cells: E. coli BL21 (DE3)
Procedure: (§1) HPPD produces homogentisic acid and CO2 from 4-hydroxyphenylpyruvate (4-HPP) and O2. The activity assay for HPPD is based on the analysis of homogentisic acid by reversed phase HPLC.
(§2) The assay mixture can contain 150 mM potassium phosphate buffer pH 7.0, 50 mM L-ascorbic acid, 100 μM Catalase (Sigma-Aldrich), 1 μM FeSO4 and 0.2 units of purified HPPD enzyme in a total volume of 505 μl. 1 unit is defined as the amount of enzyme that is required to produce 1 nmol of HGA per minute at 20° C.
(§3) After a preincubation of 30 min the reaction is started by adding 4-HPP to a final concentration of 0.05 mM. The reaction is allowed to proceed for 45 min at room temperature. The reaction is stopped by the addition of 50 μl of 4.5 M phosphoric acid. The sample is filtered using a […] pore size PVDF filtration device.
(§4) 5 μl of the cleared sample is analyzed on an UPLC HSS T3 column (particle size 1.8 μm, dimensions 2.1×50 mm; Waters) by isocratic elution using 90% 20 mM NaH2PO4 pH 2.2, 10% methanol (v/v).
(§5) HGA is detected electrochemically at 750 mV (mode: DC; polarity: positive) and quantified by integrating peak areas (Empower software; Waters).
(§6) Inhibitors are dissolved in DMSO (dimethylsulfoxide) to a concentration of 0.5 mM. From this stock solution serial five-fold dilutions are prepared in DMSO, which are used in the assay. The respective inhibitor solution accounts for 1% of the assay volume. […] Activities are normalized by setting the uninhibited enzyme activity to 100%. IC50 values are calculated using non-linear regression.
(§7) Purified, mutant HPPD enzymes are obtained by the methods described above. Dose response and kinetic measurements are carried out using the described HPPD activity assay. Apparent michaelis constants (Km) and maximal reaction velocities (Vmax) are calculated by non-linear regression with the software GraphPad Prism 5 (GraphPad Software, La Jolla, USA) using a substrate inhibition model. […] Weighted means (by standard error) of Km and IC50 values are calculated from at least three independent experiments.
(§8) Field performance of the optimized HPPD enzyme, which is used as a herbicide tolerance trait may depend not only on its lack of sensitivity towards HPPD inhibiting herbicides but also on its activity. To assess the potential performance of a herbicide tolerance trait a tolerance index (TI) is calculated using the following formula: […]
(§9) Easy comparison and ranking of each trait is enabled by normalizing tolerance indexes on Arabidopsis or Hordeum wild-type HPPD.

HvHPPD L320H (SEQ ID: 2) = molecular target: T2, HvHPPD L320H (SEQ ID: 2) (Hordeum vulgare, UniProt O48604, A164G/L320H/R146V/R147D/R148G); assay: HPPD activity assay, mutant enzyme; conditions: Table 16, normalized to Hordeum wild-type
T2 construct: His tag (N); made in house; host or cells: E. coli BL21 (DE3)
Procedure: as §1, §2, §3, §4, §5, §6, §7, §8, §9

[2] = molecular target: T3, Hordeum HPPD (SEQ ID: 2) I416V (Hordeum vulgare, UniProt O48604, A164G/I416V/R146V/R147D/R148G); assay: HPPD activity assay, mutant enzyme; conditions: Table 16, normalized to Hordeum wild-type
T3 construct: His tag (N); made in house; host or cells: E. coli BL21 (DE3)
Procedure: as §1, §2, §3, §4, §5, §6, §7, §8, §9

[3] = molecular target: T4, Arabidopsis HPPD (SEQ ID: 53) F381L (Arabidopsis thaliana, UniProt P93836, F381L); assay: HPPD activity assay, mutant enzyme; conditions: Table 15, normalized to Arabidopsis wild-type
T4 construct: PCR-based site directed mutagenesis of pEXP5-NT/TOPO®-AtHPPD; His6 (N); made in house; host or cells: E. coli BL21 (DE3)
Procedure: as §1, §2, §3, §4, §5, §6, §7, §8, §9

[4] = molecular target: T5, Hordeum HPPD (SEQ ID: 2) F404L (Hordeum vulgare, UniProt O48604, A164G/F404L/R146V/R147D/R148G); assay: HPPD activity assay, mutant enzyme; conditions: Table 16, normalized to Hordeum wild-type
T5 construct: His tag (N); made in house; host or cells: E. coli BL21 (DE3)
Procedure: as §1, §2, §3, §4, §5, §6, §7, §8, §9

HvHPPD L320Q (SEQ ID: 2) = molecular target: T6, HvHPPD L320Q (SEQ ID: 2) (Hordeum vulgare, UniProt O48604, A164G/L320Q/R146V/R147D/R148G); assay: HPPD activity assay, mutant enzyme; conditions: Table 16, normalized to Hordeum wild-type
T6 construct: His tag (N); made in house; host or cells: E. coli BL21 (DE3)
Procedure: as §1, §2, §3, §4, §5, §6, §7, §8, §9

[5] = molecular target: T7, Arabidopsis HPPD (SEQ ID: 53) M335H, P336G (Arabidopsis thaliana, UniProt P93836, M335H/P336G); assay: HPPD activity assay, mutant enzyme; conditions: Table 15, normalized to Arabidopsis wild-type
T7 construct: PCR-based site directed mutagenesis of pEXP5-NT/TOPO®-AtHPPD; His6 (N); made in house; host or cells: E. coli BL21 (DE3)
Procedure: as §1, §2, §3, §4, §5, §6, §7, §8, §9

HvHPPD G407C (SEQ ID: 2) = molecular target: T8, HvHPPD G407C (SEQ ID: 2) (Hordeum vulgare, UniProt O48604, A164G/G407C/R146V/R147D/R148G); assay: HPPD activity assay, mutant enzyme; conditions: Table 16, normalized to Hordeum wild-type
T8 construct: His tag (N); made in house; host or cells: E. coli BL21 (DE3)
Procedure: as §1, §2, §3, §4, §5, §6, §7, §8, §9

[6] = molecular target: T9, Hordeum HPPD (SEQ ID: 2) L250M (Hordeum vulgare, UniProt O48604, A164G/L250M/R146V/R147D/R148G); assay: HPPD activity assay, mutant enzyme; conditions: Table 16, normalized to Hordeum wild-type
T9 construct: His tag (N); made in house; host or cells: E. coli BL21 (DE3)
Procedure: as §1, §2, §3, §4, §5, §6, §7, §8, §9

[7] = molecular target: T10, Arabidopsis HPPD (SEQ ID NO:53) (Arabidopsis thaliana, UniProt P93836); assay: HPPD activity assay (HGA by HPLC), wildtype enzyme
T10 construct: His6 (N); made in house; host or cells: E. coli BL21 (DE3)
T10 sequence (P93836 1-445): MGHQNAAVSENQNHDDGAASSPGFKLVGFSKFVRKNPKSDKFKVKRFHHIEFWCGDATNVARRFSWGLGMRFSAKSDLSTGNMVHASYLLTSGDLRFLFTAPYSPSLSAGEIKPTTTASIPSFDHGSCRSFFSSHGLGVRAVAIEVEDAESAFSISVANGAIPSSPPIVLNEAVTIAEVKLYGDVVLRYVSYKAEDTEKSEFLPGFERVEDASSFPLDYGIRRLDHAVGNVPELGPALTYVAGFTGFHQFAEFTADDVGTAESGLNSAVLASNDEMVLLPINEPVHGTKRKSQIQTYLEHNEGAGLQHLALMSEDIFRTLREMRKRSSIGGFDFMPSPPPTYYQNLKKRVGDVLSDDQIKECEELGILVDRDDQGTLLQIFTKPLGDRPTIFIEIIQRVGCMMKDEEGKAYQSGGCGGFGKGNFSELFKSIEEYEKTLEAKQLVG
Procedure: as §1, §2, §3, §4, §5, §6
Using methods which are described in the above examples or well known in the art, purified, recombinant wildtype HPPD enzymes are characterized with respect to their kinetic properties and sensitivity towards HPPD inhibiting herbicides. Apparent michaelis constants (Km) and maximal reaction velocities (Vmax) are calculated by non-linear regression with the software GraphPad Prism 5 (GraphPad Software, La Jolla, USA) using a substrate inhibition model. […] Weighted means (by standard error) of Km and IC50 values are calculated from at least three independent experiments.
as §8, with “the” for “the optimized”
Easy comparison and ranking of each trait is enabled by normalizing tolerance indexes on Arabidopsis wild-type HPPD.

T2 sequence (O48604 whole entry R146V/R147D/R148G/A164G/L320H): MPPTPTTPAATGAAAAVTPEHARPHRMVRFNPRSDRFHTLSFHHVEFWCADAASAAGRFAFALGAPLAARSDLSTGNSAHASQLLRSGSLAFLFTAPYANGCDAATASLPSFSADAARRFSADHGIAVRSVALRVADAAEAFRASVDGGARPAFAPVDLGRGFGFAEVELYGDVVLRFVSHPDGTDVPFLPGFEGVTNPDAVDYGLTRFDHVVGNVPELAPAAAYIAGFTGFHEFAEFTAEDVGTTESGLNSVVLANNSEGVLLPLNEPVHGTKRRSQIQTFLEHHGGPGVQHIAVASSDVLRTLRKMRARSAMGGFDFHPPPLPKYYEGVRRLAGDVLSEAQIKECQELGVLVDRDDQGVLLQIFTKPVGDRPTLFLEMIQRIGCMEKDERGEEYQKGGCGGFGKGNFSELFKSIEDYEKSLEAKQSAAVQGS
T4 sequence (P93836 whole entry F381L): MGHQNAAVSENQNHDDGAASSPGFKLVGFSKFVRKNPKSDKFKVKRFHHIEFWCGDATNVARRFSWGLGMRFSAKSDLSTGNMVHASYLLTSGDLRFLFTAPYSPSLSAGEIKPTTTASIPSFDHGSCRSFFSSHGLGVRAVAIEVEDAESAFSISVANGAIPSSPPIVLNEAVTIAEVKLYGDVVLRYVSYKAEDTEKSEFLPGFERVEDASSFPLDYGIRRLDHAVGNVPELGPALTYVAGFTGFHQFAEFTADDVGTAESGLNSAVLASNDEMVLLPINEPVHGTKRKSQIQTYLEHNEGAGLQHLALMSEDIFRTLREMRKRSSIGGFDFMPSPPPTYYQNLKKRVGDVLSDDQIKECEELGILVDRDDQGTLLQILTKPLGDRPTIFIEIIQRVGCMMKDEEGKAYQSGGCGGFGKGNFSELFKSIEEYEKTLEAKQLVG
T6 sequence (O48604 whole entry R146V/R147D/R148G/A164G/L320Q): as the sequence (O48604 whole entry R146V/R147D/R148G/A164G/L320H) above, with H320Q counted along it
T7 sequence (P93836 whole entry M335H/P336G): as the sequence (P93836 whole entry F381L) above, with M335H, P336G, L381F counted along it
T1 sequence (P93836 whole entry F381I): as the sequence (P93836 whole entry F381L) above, with L381I counted along it
T3 sequence (O48604 whole entry R146V/R147D/R148G/A164G/I416V): as the sequence (O48604 whole entry R146V/R147D/R148G/A164G/L320H) above, with H320L, I416V counted along it
T9 sequence (O48604 whole entry R146V/R147D/R148G/A164G/L250M): as the sequence (O48604 whole entry R146V/R147D/R148G/A164G/L320H) above, with L250M, H320L counted along it
T5 sequence (O48604 whole entry R146V/R147D/R148G/A164G/F404L): as the sequence (O48604 whole entry R146V/R147D/R148G/A164G/L320H) above, with H320L, F404L counted along it
T8 sequence (O48604 whole entry R146V/R147D/R148G/A164G/G407C): as the sequence (O48604 whole entry R146V/R147D/R148G/A164G/L320H) above, with H320L, G407C counted along it

## Cc1nonc1NC(=O)c1ccc(S(C)(=O)=O)c(S(C)(=O)=O)c1C [Inhibitor 1, 2-methyl-N-(4-methyl-1,2,5-oxadiazol-3-yl)-3,4-bis(methylsulfonyl)benzamide]
[1]
  Normalized tolerance index TI Inhibitor 1: 37
HvHPPD L320H (SEQ ID: 2)
  Normalized tolerance index TI Inhibitor 1: 4.4
[2]
  Normalized tolerance index TI Inhibitor 1: 1.7
[3]
  Normalized tolerance index TI Inhibitor 1: 35.2
[4]
  Normalized tolerance index TI Inhibitor 1: 4.6
HvHPPD L320Q (SEQ ID: 2)
  Normalized tolerance index TI Inhibitor 1: 1.1
[5]
  Normalized tolerance index TI Inhibitor 1: 3.6
HvHPPD G407C (SEQ ID: 2)
  Normalized tolerance index TI Inhibitor 1: 5
[6]
  Normalized tolerance index TI Inhibitor 1: 2.1
[7]
  Ki: 1.6 nM
[7]; Table 12, normalized to Arabidopsis HPPD SEQ ID NO:53 (reference)
  Normalized tolerance index TI Inhibitor 1: 1
[7]; Table 15, Arabidopsis HPPD Wildtype (reference)
  Normalized tolerance index TI Inhibitor 1: 1
[7]; not normalized, Table 11, Arabidopsis enzyme
  TI (tolerance index): 1.6E−3
